Source: paper PMC11116102, “A naturally occurring variant of SHLP2 is a protective factor in Parkinson’s disease” (Molecular Psychiatry, 2024)
Each block holds one molecule with its values, some of them ahead of it. No end group written: not given here.

How the values were obtained:
[1] = system: dopamine levels in the striatum; experiment: Striatal dopamine in MPTP-lesioned mice (HPLC with electrochemical detection); format: in vivo; settings: C57BL/6 mice, MPTP 20 mg/kg, n = 8 per group
Description: C57BL/6 male mice, 8 to 10 weeks of age were purchased from Jackson Labs (Bar Harbor, Maine). 1-methyl-4- phenyl- 1,2,3,6-tetrahydropyridine (MPTP) (Selleck Chemicals Co., Houston, TX) was prepared to a concentration of […] free-base in 0.9% saline on the day of use. C57BL/6 mice were injected with 20 mg/kg free-base MPTP. 8 days after the last injection of MPTP, mice were killed by cervical dislocation and the brain quickly removed and placed on wet ice. Striatal tissues for HPLC analysis and western immunoblotting were collected fresh corresponding to anatomical regions from bregma 1.20 to bregma 0.60, with borders dorsal to the anterior commissure, ventral to the corpus callosum, medial to the lateral ventricle, and 2.5 mm lateral from midline, and frozen at -80 °C until analysis. All procedures utilizing MPTP lesioning and tissue collection were approved by the USC IACUC.
Dopamine concentrations were determined according to an adaptation of Irwin et al. from the method of Kilpatrick et al.. […] The protein pellet was resuspended in 0.5 N NaOH and the total protein concentration determined using the BCA Protein Assay (Pierce, Rockford, IL), a Biotek Model Elx800 microplate reader (Biotek Instruments, Wincoski, VT) and KCjunior software. […]

[2] = system: HeLa expressing HA- EGFP- OMP25 (HA-MITO); experiment: Rapid mitochondria immunoprecipitation, localization of synthetic SHLP2; format: cell-based; settings: synthetic SHLP2 treatment, western blot
Description: Mitochondria isolation from HeLa cells expressing HA-EGFP-OMP25 (HA-MITO) or myc-EGFP-OMP25 (CON-MITO) was performed according to the published article. Briefly, cells were lysed in KPBS buffer (136 mM KCl, 10 mM KH2PO4, pH 7.25) and homogenized with 25 strokes of a 2 ml homogenizer. The homogenate was spun down at 1000 g for 2 min. The supernatant was incubated with anti-HA magnetic beads on an end-over-end rotator for 3.5 min. The beads were washed with KPBS buffer, incubated for 10 min with lysis buffer (1% triton X-100 lysis buffer with protease inhibitor cocktail), and spun down at 17000 g for 10 min. The supernatants were used for western blot.

HEK293 cells = experiment: Cycloheximide pulse-chase protein stability; format: cell-based; settings: HEK293 transiently transfected with C-terminal EGFP-tagged construct; 100ug/ml cycloheximide for the indicated time; western blot, Image J; n = 3/per group
Description: Cells were lysed with RIPA Lysis and Extraction Buffer (ThermoFisher Scientific) plus the Halt protease & phosphatase inhibitor cocktail (ThermoFisher Scientific). The lysates were incubated on ice for 10 min then homogenized using a sonicator, and the supernatant was collected by centrifugation at 15,000 x g for 15 min at 4 °C. Protein content in the cellular lysates was quantified using the Pierce™ BCA Protein Assay Kit (ThermoFisher Scientific). Predetermined amounts of proteins (10-30μg) were separated on 8-16% SDS-PAGE gels and blotted onto PVDF membranes (Biorad, Hercules, CA, USA). Membranes were incubated with primary antibody at 4 °C overnight according to the manufacturer’s instructions. After several washes with Tris-buffered saline containing 0.1% Tween-20, membranes were incubated at room temperature for 1 hr with the appropriate HRP-conjugated secondary antibody. Clarity™ Western ECL substrate (Biorad) was used for detecting specific bands. Membranes were imaged on a Bio-Rad ChemiDoc XRS^+ imager. If necessary, relative intensities of the bands in each condition were measured using Image J, a free software program provided by National Institute of Health (Bethesda, Maryland, USA).
Cycloheximide, an inhibitor of protein biosynthesis, was used to examine protein stability in cells. […] The protein quantity from western blot was examined with Image J.

Molecule: CN1CC=C(c2ccccc2)CC1 [MPTP, 1-methyl-4-phenyl-1,2,3,6-tetrahydropyridine]
dopamine levels in the striatum, toxin alone [1]: significant decrease in dopamine levels

Molecule: MGVKFFTLSTRFFPSVQRAVPLWTNS [WT SHLP2]
mitochondrial localization of synthetic peptide [2]: localized in the mitochondria after 30 min of treatment

protein stability, pulse-chase (HEK293 cells): more stable than WT SHLP2
Molecule: MGVRFFTLSTRFFPSVQRAVPLWTNS [K4R SHLP2]
